Reference: paper PMC4833300, “Identification of Trypanocidal Activity for Known Clinical Compounds Using a New Trypanosoma cruzi Hit-Discovery Screening Cascade” (PLoS Neglected Tropical Diseases, 2016)
Read-outs that look alike come from different tables or passages of the source.

Columns and labels:
[1] = tested on: intracellular T. cruzi amastigotes; assay: Primary high-content intracellular T. cruzi amastigote assay; type: cell-based, Trypanosoma cruzi (Silvio X10/7 A1) in Vero cells; details: for EC50: Trypanosoma cruzi, read-out: pEC50 (cruzi) (converted)
Method: (§1) The compounds tested were obtained from the NIH (Clinical Collection) and from SelleckChem (FDA-approved drug library). Compounds were dispensed into black 384-well assay plates (Corning) by acoustic dispensing (LabCyte ECHO). […] Potencies are reported as pEC50 (-LOG(EC50[M])).
(§2) For the primary intracellular assay the infection conditions were chosen so that no trypomastigote egress occurs during the compound incubation time. First, Vero cells were infected overnight with tissue culture derived T. cruzi trypomastigotes in T225 tissue culture flasks (MOI 5). Next, any remaining free trypomastigotes were washed away with serum free MEM and the infected Vero cells were harvested by trypsinisation. The infected Vero cells were then plated into 384-well plates containing the compounds to be tested, at 4000 cells per well in MEM media with 1% FCS. […] The plates were imaged on a Perkin Elmer Operetta high-content imaging system using a 20x objective. Images were analysed using the Columbus system (Perkin Elmer). The algorithm for the primary assay first identified the Vero nuclei followed by demarcation of the cytoplasm and identification of intracellular amastigotes. This algorithm reported mean number of parasites per Vero cell and total number of Vero cells. Data analysis was as described in [22]. […] Hits from the primary screen were selected based on the following criteria: T. cruzi activity (percent inhibition) > (median T. cruzi percent inhibition + 3 x robust Standard Deviation) and Vero activity (percent inhibition) < (median percent Vero inhibition + 3 x robust Standard Deviation).

[2] = tested on: Vero cells; assay: Host cell toxicity read-out of the primary assay (Vero cell count); type: cell-based; details: for EC50: Chlorocebus sabaeus, Vero, read-out: pEC50 (Vero) (converted)
Method: as §1, §2

[3] = tested on: intracellular T. cruzi; assay: Rate-of-kill assay (static-cidal assay in timecourse format); type: cell-based, Trypanosoma cruzi (Silvio X10/7 A1) in Vero cells; details: Trypanosoma cruzi; -LOG(MCC[M]); minimum cidal concentration, lowest concentration clearing at least half as many Vero cells as Nifurtimox (50μM) within 96 h; read-out: pMCC (RoK) (converted)
Method: The rate-of-kill assay uses the same protocol as the static-cidal assay but plates are incubated for 24, 48, 72 and 96 hours prior to fixing. Percent infected data is plotted as a time-course for each compound at every concentration. The minimum cidal concentration (MCC) is defined as the lowest concentration of compound that clears at least half as many Vero cells of intracellular parasites as Nifurtimox (50μM) within the timeframe of the assay.
To obtain rate-of-kill information we carried out the static-cidal assay in timecourse format (Fig 4A), with timepoints taken every 24h.

[4] = tested on: intracellular T. cruzi; assay: Static-cidal assay (percent infected Vero cells, 96 h); type: cell-based, Trypanosoma cruzi (Silvio X10/7 A1) in Vero cells; details: Trypanosoma cruzi, Vero; 96 h; 0% = starting level of infection, 100% = 50μM Nifurtimox at 96h; only from concentrations not toxic to the host cells; read-out: MAX PI (SC), Maximum Percent Inhibition in the static cidal assay
Method: The secondary static-cidal assay uses the same protocol as the standard assay with the following changes: infection is done at MOI 10, and infected Vero cells are incubated 88h at 37°C in presence of 5% CO2 prior to trypsinisation and plating. Four hours after plating a control plate (no compounds) was fixed with formaldehyde as described above. Compound containing plates were fixed after incubation for 96 hours. Compounds are run as ten point dose response curves in triplicate. The algorithm for the secondary assay was similar to the primary assay but reported percent infected Vero cells instead of the mean number of parasites.
To assess screening hits for their ability to be cytocidal rather than cytostatic or growth slowing we developed a medium throughput (400 compounds / batch) assay to predict cidality of compounds against intracellular T. cruzi. […] Instead we developed an algorithm that assesses whether a Vero cell is infected or not, and we used the percentage of infected cells as primary measurement for the static-cidal assay. In order to readily identify cidal compounds we normalised the raw data using the starting level of infection as 0% effect and the final level of infection in presence of 50μM Nifurtimox as 100% effect control.

[5] = hits of the bio-actives screen, 10-point dose-response, top concentration 50μM, 72h

SMILES	EC50 [1, 5] [µM]	EC50 [2, 5] [µM]	further results
Nc1ncnc2c1ncn2[C@@H]1O[C@H](CO)C[C@H]1O [3'-deoxydenosine]	–	–	pEC50 (cruzi) [1, 5]: 5.6; pEC50 (Vero) [2, 5]: 4.3
CCCCC(=O)O[C@H]1CC[C@H]2[C@@H]3CCc4cc(O)ccc4[C@H]3CC[C@]12C [17β-estradiol 17-valerate]	–	–	pEC50 (cruzi) [1, 5]: 5.0; pEC50 (Vero) [2, 5]: 4.9
CC(C)(C)C(=O)OCOP(=O)(COCCn1cnc2c(N)ncnc21)OCOC(=O)C(C)(C)C [Adefovir Dipivoxil]	6.31	15.8	–
CCC(C)(C)c1ccc(CC(C)CN2C[C@@H](C)O[C@@H](C)C2)cc1 (stereo partly shown) [Amorolfine]	10	15.8	–
COC(=O)C1=C(C)NC(C)=C(C(=O)OC2CCCN(Cc3ccccc3)C2)C1c1cccc([N+](=O)[O-])c1 (stereo not shown) [Benidipine]	2	10	–
CC(COc1ccccc1Cc1ccccc1)N1CCCCC1 (stereo not shown) [Benproperine]	1.26	15.8	–
CN1CCN(c2nc3cc(C(F)(F)F)ccc3n3cccc23)CC1.O=C(O)/C=C\C(=O)O.O=C(O)/C=C\C(=O)O [CGS 12066B]	–	–	pEC50 (cruzi) [1, 5]: 5.5; pEC50 (Vero) [2, 5]: 4.8
CCOc1nc2cccc(C(=O)OC(C)OC(=O)OC3CCCCC3)c2n1Cc1ccc(-c2ccccc2-c2nnn[nH]2)cc1 (stereo not shown) [Candesartan cilexetil]	6.31	12.6	–
COC(=O)C1=C(C)NC(C)=C(C(=O)OCCN(C)Cc2ccccc2)C1c1cccc([N+](=O)[O-])c1 (stereo not shown) [Cardene]	3.98	15.8	–
COc1ccccc1OCCNCC(O)COc1cccc2[nH]c3ccccc3c12 (stereo not shown) [Carvedilol]	5.01	15.8	–
CN(C)CCCN1c2ccccc2Sc2ccc(Cl)cc21 [Chlorpromazine]	3.98	10	–
CN(C)CC/C=C1/c2ccccc2Sc2ccc(Cl)cc21 [Chlorprothixene]	3.16	15.8	–
COCCOC(=O)C1=C(C)NC(C)=C(C(=O)OC/C=C/c2ccccc2)C1c1cccc([N+](=O)[O-])c1 (stereo not shown) [Cilnidipine]	1.26	15.8	–
Clc1ccccc1C(c1ccccc1)(c1ccccc1)n1ccnc1 [Clotrimazole]	–	–	MCC [3]: 2.51e-08 M; Emax [4]: 60%
C#C[C@]1(O)CC[C@H]2[C@@H]3CCC4=Cc5oncc5C[C@]4(C)[C@H]3CC[C@@]21C [Danazol]	3.98	15.8	–
CN(C)[C@@H](CCOc1cccc2ccccc12)c1ccccc1 [Dapoxetine]	5.01	15.8	–
CCOC(=O)C1(c2ccccc2)CCN(CCC(C#N)(c2ccccc2)c2ccccc2)CC1 [Diphenoxylate]	–	–	EC50 ([1]; 72 h): 2.51 µM; EC50 ([2]; 72 h): 15.8 µM
COc1cc2nc(N3CCN(C(=O)C4COc5ccccc5O4)CC3)nc(N)c2cc1OC (stereo not shown) [Doxazosin]	5.01	15.8	–
CNCC[C@H](Oc1cccc2ccccc12)c1cccs1 [Duloxetine]	–	–	EC50 ([1]; 72 h): 6.31 µM; EC50 ([2]; 72 h): 15.8 µM
C[C@]12C=CC(=O)N[C@@H]1CC[C@@H]1[C@@H]2CC[C@]2(C)[C@@H](C(=O)Nc3cc(C(F)(F)F)ccc3C(F)(F)F)CC[C@@H]12 [Dutasteride]	–	–	EC50 ([1]; 72 h): 15.8 µM; EC50 ([2]; 72 h): 15.8 µM
Clc1ccc(COC(Cn2ccnc2)c2ccc(Cl)cc2Cl)cc1 (stereo not shown) [Econazole]	–	–	MCC [3]: 6.31e-08 M; Emax [4]: 63%
C=C1[C@H](CO)[C@@H](O)C[C@@H]1n1cnc2c(=O)[nH]c(N)nc21 [Entecavir]	3.98	15.8	–
CCOC(=O)c1cncn1[C@H](C)c1ccccc1 [Etomidate]	–	–	EC50 ([1]; 72 h): 5.01 µM; EC50 ([2]; 72 h): 50.1 µM

SMILES	EC50 [1, 5] [µM]	EC50 [2, 5] [µM]	further results
CCOC(=O)C1=C(C)NC(C)=C(C(=O)OC)C1c1cccc(Cl)c1Cl (stereo not shown) [Felodipine]	5.01	15.8	–
C[C@]12CC[C@@H]3c4ccc(O)cc4C[C@@H](CCCCCCCCC[S+]([O-])CCCC(F)(F)C(F)(F)F)[C@H]3[C@@H]1CC[C@@H]2O (stereo partly shown) [Fulvestrant]	5.01	15.8	–
C=CCc1ccc(O)c(-c2ccc(O)c(CC=C)c2)c1 [Honokiol]	2	7.94	–
CNC1CC(c2ccc(Cl)c(Cl)c2)c2ccccc21 (stereo not shown) [Indatraline]	–	–	EC50 ([1]; 72 h): 5.01 µM; EC50 ([2]; 72 h): 12.6 µM
COc1ccc(CN2CCN(C(c3ccc(F)cc3)c3ccc(F)cc3)CC2)c(OC)c1OC [Lomerizine]	3.98	15.8	–
Cc1ccc(NC(=O)c2ccc(CN3CCN(C)CC3)cc2)cc1Nc1nc(-c2cccnc2)cs1 [Masitinib]	2	7.94	–
Cc1cccc(CN2CCN(C(c3ccccc3)c3ccc(Cl)cc3)CC2)c1 (stereo not shown) [Meclizine]	5.01	20	–
CCCCC/C=C\C/C=C\C/C=C\C/C=C\CCCC(=O)Nc1ccc(O)cc1 [N-arachidonoylaminophenol]	–	–	pEC50 (cruzi) [1, 5]: 5.7; pEC50 (Vero) [2, 5]: 4.8
COCCOC(=O)C1=C(C)NC(C)=C(C(=O)OC(C)C)C1c1cccc([N+](=O)[O-])c1 (stereo not shown) [Nimodipine]	2	15.8	–
CCOC(=O)C1=C(C)NC(C)=C(C(=O)OC)C1c1cccc([N+](=O)[O-])c1 (stereo not shown) [Nitrendipine]	3.98	15.8	–
NC(=O)N/N=C/c1ccc([N+](=O)[O-])o1 [Nitrofurazone]	1	15.8	–
Fc1ccc([C@@H]2CCNC[C@H]2COc2ccc3c(c2)OCO3)cc1 [Paroxetine]	5.01	12.6	–
O=C1[C@H]2CCCC[C@H]2C(=O)N1CCCCN1CCN(c2nsc3ccccc23)CC1 [Perospirone]	6.31	15.8	–
c1ccc2c(c1)Nc1ccccc1S2 [Phenothiazine]	–	–	EC50 ([1]; 72 h): 2.51 µM; EC50 ([2]; 72 h): 15.8 µM
COC(=O)[C@H]1[C@H]2C[C@@H]3c4[nH]c5cc(OC)ccc5c4CCN3C[C@H]2C[C@@H](OC(=O)c2cc(OC)c(OC)c(OC)c2)[C@@H]1OC [Reserpine]	3.98	50.1	–
CO[C@H]1/C=C/O[C@@]2(C)Oc3c(C)c(O)c4c(O)c(c(/C=N/N5CCN(C6CCCC6)CC5)c(O)c4c3C2=O)NC(=O)/C(C)=C\C=C\[C@H](C)[C@H](O)[C@@H](C)[C@@H](O)[C@@H](C)[C@H](OC(C)=O)[C@@H]1C [Rifapentine]	10	15.8	–
C[C@@H]1CN(CCCn2c3ccccc3c3ccccc32)C[C@H](C)N1 [Rimcazole]	5.01	10	–
C=C(C)CN1CC[C@]23c4c5ccc(O)c4O[C@H]2c2[nH]c4ccccc4c2C[C@@]3(O)C1C5.Cl.O [SDM25N]	–	–	pEC50 (cruzi) [1, 5]: 5.2; pEC50 (Vero) [2, 5]: 4.8
C[C@]12Cc3c[nH]nc3C[C@@H]1CC[C@@H]1[C@@H]2CC[C@@]2(C)[C@H]1CC[C@]2(C)O [Stanozolol]	–	–	EC50 ([1]; 72 h): 5.01 µM; EC50 ([2]; 72 h): 15.8 µM
CN1CCN(CC/C=C2/c3ccccc3Sc3ccc(S(=O)(=O)N(C)C)cc32)CC1 [Thiothixene]	5.01	7.94	–
Oc1cc(Cl)ccc1Oc1ccc(Cl)cc1Cl [Triclosan]	–	–	EC50 ([1]; 72 h): 7.94 µM; EC50 ([2]; 72 h): 10 µM
C[C@@H](c1ncncc1F)[C@](O)(Cn1cncn1)c1ccc(F)cc1F [Voriconazole]	0.0251	50.1	Emax [4]: 70%
